How the values were obtained:
Assay in all cases: Binding Assay
[1] = biological target: T1, Steroid C26-monooxygenase (Mycobacterium tuberculosis (strain CDC 1551 / Oshkosh), UniProt P9WPL4)
T1 sequence (P9WPL4 whole entry): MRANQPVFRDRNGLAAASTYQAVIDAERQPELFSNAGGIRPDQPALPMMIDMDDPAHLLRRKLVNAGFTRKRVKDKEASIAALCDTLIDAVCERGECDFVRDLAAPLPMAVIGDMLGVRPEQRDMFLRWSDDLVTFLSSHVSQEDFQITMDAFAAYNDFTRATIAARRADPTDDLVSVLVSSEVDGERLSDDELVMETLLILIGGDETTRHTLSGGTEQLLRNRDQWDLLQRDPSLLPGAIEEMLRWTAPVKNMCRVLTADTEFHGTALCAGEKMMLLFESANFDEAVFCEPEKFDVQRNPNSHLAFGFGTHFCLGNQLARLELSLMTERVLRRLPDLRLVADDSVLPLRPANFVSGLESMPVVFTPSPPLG
Description: (§1) Binding assay using CYP130, CYP130 (G234) or CYP142.

[2] = biological target: T2, Cytochrome P450 130 (Mycobacterium tuberculosis (strain ATCC 25618 / H37Rv), UniProt P9WPN5)
T2 sequence (P9WPN5 whole entry): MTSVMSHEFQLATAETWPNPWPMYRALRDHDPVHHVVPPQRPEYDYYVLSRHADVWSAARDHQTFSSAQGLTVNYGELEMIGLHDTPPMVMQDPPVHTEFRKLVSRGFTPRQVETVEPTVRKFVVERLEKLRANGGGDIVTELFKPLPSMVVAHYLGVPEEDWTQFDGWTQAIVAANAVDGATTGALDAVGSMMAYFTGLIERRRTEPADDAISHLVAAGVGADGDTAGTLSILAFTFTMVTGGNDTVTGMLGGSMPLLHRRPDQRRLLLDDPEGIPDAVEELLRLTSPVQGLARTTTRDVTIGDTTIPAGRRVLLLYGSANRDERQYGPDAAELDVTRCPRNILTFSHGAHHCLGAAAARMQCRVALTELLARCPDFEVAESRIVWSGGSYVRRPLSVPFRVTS
Description: as §1

[3] = biological target: T3, Cytochrome P450 130 (Mycobacterium tuberculosis (strain CDC 1551 / Oshkosh), UniProt P9WPN4)
T3 sequence (P9WPN4 whole entry): T2 sequence (P9WPN5 whole entry)
Description: as §1

## NCc1ccccc1
[1]
  Kd: 0.1 µM
[2]
  Kd: 10000 µM
[3]
  Kd: 9990 µM

## Clc1ccccc1C(c1ccccc1)(c1ccccc1)n1ccnc1
[2]
  Kd: 6.1 µM
[3]
  Kd: 13.3 µM

## Nc1ccccc1 [Aniline]
[1]
  Kd: 59.2 µM
[2]
  Kd: 2500 µM
[3]
  Kd: 55.2 µM

## Nc1ccc(Sc2ccc(N3C(=O)c4ccc(N)cc4C3=O)cc2)cc1 [Arylamine compound 2]
[1]
  Kd: 0.17 µM
[2]
  Kd: 4.9 µM
[3]
  Kd: 1.08 µM

## Cc1cccc(-n2cnc3cc(N)ccc32)c1 [Arylamine compound 4]
[2]
  Kd: 32.6 µM
[3]
  Kd: 4.8 µM

## Clc1ccc(COC(Cn2ccnc2)c2ccc(Cl)cc2Cl)cc1 (stereo unspecified) [ECONAZOLE]
[1]
  Kd: 0.33 µM
[2]
  Kd: 4.5 µM
[3]
  Kd: 1.93 µM

From BindingDB's records for doi:10.1074/jbc.M109.017632 (University of California San Francisco, 2009)
